In PubChem BioAssay (NCI):
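Five concentrations, 48 hours, 96-well plates. GI50 marks 50% less growth. TGI denotes the concentration required for complete inhibition of growth.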

Assays:
Test in all cases: inhibition of tumour cell growth, NCI panel, 48 h
MDA-MB-231 breast = system: MDA-MB-231 breast
KM12 colon = system: KM12 colon
RXF 393 renal = system: RXF 393 renal
TK-10 renal = system: TK-10 renal
A549 NSCLC = system: A549 NSCLC
DU-145 prostate = system: DU-145 prostate
OVCAR-5 ovarian = system: OVCAR-5 ovarian
HOP-62 NSCLC = system: HOP-62 NSCLC
HOP-92 NSCLC = system: HOP-92 NSCLC
MALME-3M melanoma = system: MALME-3M melanoma

Row | SMILES | GI50 (MDA-MB-231 breast) [µM] | TGI (MDA-MB-231 breast) [µM] | GI50 (KM12 colon) [µM] | TGI (KM12 colon) [µM] | GI50 (RXF 393 renal) [µM] | TGI (RXF 393 renal) [µM] | GI50 (TK-10 renal) [µM] | TGI (TK-10 renal) [µM] | GI50 (A549 NSCLC) [µM] | TGI (A549 NSCLC) [µM] | GI50 (DU-145 prostate) [µM] | TGI (DU-145 prostate) [µM] | GI50 (OVCAR-5 ovarian) [µM] | TGI (OVCAR-5 ovarian) [µM] | GI50 (HOP-62 NSCLC) [µM] | TGI (HOP-62 NSCLC) [µM] | GI50 (HOP-92 NSCLC) [µM] | TGI (HOP-92 NSCLC) [µM] | GI50 (MALME-3M melanoma) [µM] | TGI (MALME-3M melanoma) [µM]
1 | C=C1C(=O)O[C@H]2C[C@@H]1CC/C(C)=C/CC/C(C)=C/CC[C@H]2C | 18.9 | 38.9 | 18.1 | 44.4 | 9.67 | 27.7 | 20 | 37.7 | 9.73 | 33 | 18 | 33.5 | 17.2 | 34.6 | 12.5 | 27.1 |  |  |  | 
2 | CC(=O)[CH-]C(C)=O.CC(=O)[CH-]C(C)=O.[CH2-]CCC.[CH2-]CCC.[Sn+4] |  |  | 1.11 | 2.33 | 0.0699 | 0.292 | 0.423 | 1.36 | 1.88 | 4.15 |  |  | 1.82 | 3.22 | 2.02 | 3.56 | 0.256 | 1.25 | 0.2 | 1.07
3 | CCCCCC(=O)C(C)C1=Nc2nnc(CCCCCCCc3nnc4n3C(=O)C(C(C)C(=O)CCCCC)=N4)n2C1=O (centres undefined) |  |  |  | > 100 |  | > 100 |  | > 100 |  | > 100 |  |  |  | > 100 |  | > 100 |  |  |  | > 100
4 | CCOC(=O)C1N(S(=O)(=O)c2ccc(C)cc2)CCC12c1ccccc1N(C(C)=O)C2c1ccc(OC)c(OC)c1 (centres undefined) |  |  |  | > 100 |  | > 100 |  | > 100 |  | > 100 |  |  |  | > 100 |  | > 100 |  | > 100 |  | > 100
5 | Cc1sc2nc(-c3ccncc3)c(/C=N/N=C(N)N)n2c1C | 25.3 | 61.5 | 14.7 | 37.2 |  |  | > 100 | > 100 |  |  | 50.8 | > 100 | 74.6 | > 100 | 33.9 | > 100 |  |  |  | 
6 | COc1ccc(OC)c(/C(C)=N/NC(N)=S)c1 |  |  |  | > 100 |  | > 100 |  | > 100 |  | > 100 |  |  |  | > 100 |  | > 100 |  | > 100 |  | > 100
7 | C=C(C)C(=O)O[C@H]1C[C@@]23O[C@@H]2CCC(=C[C@H]2OC(=O)C(=C)[C@H]12)COC3O (some centres undefined) |  | > 100 |  | > 100 |  | 89.6 |  | > 100 |  | > 100 |  | > 100 |  | > 100 |  | > 100 |  | 53.6 |  | 
8 | COc1ccc(S(=O)(=O)Nc2ccccc2C(=O)O)cc1 |  |  |  | > 100 |  | > 100 |  | > 100 |  | > 100 |  |  |  | > 100 |  |  |  | > 100 |  | > 100
9 | C=C(COC(C)=O)CC(OC(C)=O)c1ccccc1 (centres undefined) |  |  |  | > 100 |  | > 100 |  | > 100 |  | > 100 |  |  |  | > 100 |  | > 100 |  | > 100 |  | 
10 | CC1CCC2(CC1)NN=c1s/c(=C\c3ccc(O)cc3)c(=O)n1N2 (centres undefined) |  |  |  | > 100 |  | > 100 |  | > 100 |  | > 100 |  |  |  |  |  | > 100 |  |  |  | 
11 | CC(C)CC(NC(=O)c1cccc(O)c1O)C(=O)NCc1cc(CNC(=O)C(CC(C)C)NC(=O)c2cccc(O)c2O)cc(CNC(=O)C(CC(C)C)NC(=O)c2cccc(O)c2O)c1 (centres undefined) |  |  |  | 41.9 |  |  |  | > 100 |  | 50.3 |  |  |  | 27.1 |  | 52.8 |  | 32 |  | 39.5
12 | CCC[CH2][Sn]1([CH2]CCC)[O]CC(Cc2ccccc2)[O]1 (centres undefined) |  |  | 3.77 | 14.4 | 1.47 | 2.84 | 2.64 | 7.27 | 15.3 | 28.9 |  |  | 11.2 | 23.3 | 4.04 | 19.4 | 2.9 | 8.67 | 0.941 | 3.51
13 | O=C1c2ccccc2C(Br)(Br)c2ccccc21 |  |  |  | > 100 |  | > 31.6 |  | > 100 |  | > 31.6 |  |  |  | > 31.6 |  |  |  | > 100 |  | > 31.6
14 | Cc1ccc(SC(CCC(Sc2ccc(C)cc2)Sc2ccc(C)cc2)Sc2ccc(C)cc2)cc1 |  |  |  | > 100 |  | > 100 |  | > 100 |  | > 100 |  |  |  |  |  | > 100 |  | > 100 |  | 
15 | COC(=O)[C@@H](C)C[C@H](Cc1ccccc1)NC(=O)c1csc(CC[C@H](C(C)C)N(C)C(=O)[C@@H](NC(=O)[C@H]2CCCCN2C)C(C)C)n1 | 0.318 | > 8.8 | 0.324 | > 33.3 |  |  | > 15.2 | > 33.3 | 1.27 | > 33.3 | 0.303 | > 19.7 | 1.26 | > 33.3 | 0.536 | > 33.3 | 0.582 | > 26.9 |  | 
16 | Oc1[nH]c2ccccc2c1N=Nc1ccccn1 |  | 38.1 |  | 97.8 |  | > 100 |  | 53.7 |  | > 100 |  | > 100 |  | > 100 |  | 91.7 |  |  |  | 
17 | C[N-]c1nnnn1C.[Au+].c1ccc([PH+](c2ccccc2)c2ccccc2)cc1 |  |  | 7.09 | 28.6 | 0.347 | 1.26 | 2.19 | 4.42 | 14.7 | 68.7 |  |  | 19.1 | 34 | 7.89 | 16.8 | 2.67 | 5.42 | 1.42 | 2.91
18 | CC(=O)[O][Ga]([Cl])[O]C(C)=O |  |  | > 100 | > 100 | > 100 | > 100 | > 100 | > 100 | > 100 | > 100 |  |  | > 100 | > 100 |  |  | > 100 | > 100 | > 100 | > 100
19 | Cc1ccc(S(=O)(=O)NC(=O)C2C(=O)CC3(CCCCC3)CC2=O)cc1 |  | > 100 |  | 50 |  | > 100 |  | 62.1 |  | > 100 |  | > 100 |  | > 100 |  | > 100 |  | 45.6 |  | 
20 | COc1ccc(-c2cn[nH]c2-c2cc(OC)c3c(c2)OCO3)cc1 | 0.643 | 8.35 | 0.0929 | 11.1 | 0.176 | 0.684 | 1.51 | 63.3 | 0.3 | 20.1 | 0.402 | 14.9 | 1.34 | 36.6 | 0.309 | 24.1 | 0.417 | 20.8 |  | 
21 | [Cl-].[O-]/N=C(\c1ccccc1)c1ccccn1.[O-]/N=C(\c1ccccc1)c1ccccn1.[O-]/N=C(\c1ccccc1)c1ccccn1.[Sm+3] |  |  | 17.6 | > 100 |  |  | 24.5 | > 100 | 35.8 | > 100 |  |  | 53.9 | > 100 | 28 | > 100 | 23.6 | 87.8 | 24.6 | 88.6
22 | Cc1[nH]c2ccccc2c1C(=O)CC1(O)C(=O)Nc2ccccc21 (centres undefined) |  |  |  | > 100 |  | > 100 |  | > 100 |  | > 100 |  |  |  | > 100 |  | > 100 |  | > 100 |  | 
23 | Cc1cc2c(ccc3c(C)cc(=O)oc32)o1 |  |  |  | > 100 |  | > 100 |  | > 100 |  | > 100 |  |  |  | > 100 |  | > 100 |  | > 100 |  | > 100
24 | COC(=O)N(C(=O)OC)C(C(=O)O)C(C)C (centres undefined) |  |  |  | > 100 |  | > 100 |  | > 100 |  | > 100 |  |  |  | > 100 |  | > 100 |  | > 100 |  | 
25 | COc1ccc2c(CN3CCCCC3CO)cc3cc(OC)c(OC)cc3c2c1 (centres undefined) |  |  |  | 16.2 |  | 18 |  | 27.5 |  | 14.2 |  |  |  | 12 |  | 20.7 |  | 9.82 |  | 16.9
26 | CN(C)CC(C)(C)C(=O)/C=C/c1ccc(/C=C/C(=O)C(C)(C)CN(C)C)cc1 |  |  |  | 3.25 |  | 2.66 |  | 3.03 |  | 7.4 |  |  |  | 3.51 |  | 4.51 |  | 2.22 |  | 3.97
27 | c1cc(N(CCn2cccn2)CCn2cccn2)cc(N(CCn2cccn2)CCn2cccn2)c1 |  |  |  | > 100 |  | > 100 |  | > 100 |  | > 100 |  |  |  |  |  | > 100 |  | > 100 |  | 
28 | O=c1nc(/C=C/c2ccccc2Cl)cc2n1CCN2CCO |  |  |  | > 100 |  | > 100 |  | > 100 |  |  |  |  |  | > 100 |  | > 100 |  | > 100 |  | > 100
29 | Cc1ccc(C)c2c1C(O)(C#Cc1ccccc1)c1ccccc1C2(O)C#Cc1ccccc1 (centres undefined) | 2.84 | > 100 | 2.93 | 27.1 |  |  | 3.68 | > 100 | 3.12 | > 100 | 3.32 | > 100 | 8.39 | > 100 | 5.88 | > 100 | 2.29 | > 27.3 |  | 
30 | CCCCCC[N+](C)(C)Cc1ccc(C[N+](C)(C)CCCCCC)cc1 |  |  |  |  |  |  |  | 24.3 |  | 12.8 |  |  |  | 24.7 |  | 8.23 |  | 7.17 |  | 97.8
